The test system of experiment [1] is CAG RNA oligonucleotide (RNA, repeat) GCAGCAGCUUCGGCAGCAGC
Kind of experiment: fluorescence well-plate screening. The settings on record: buffer pH 7, 5 μM ligand, 1 equiv. RNA.

Experiment [2] shares this test system. Description: spectrophotometric titration. Particulars: 2a 5 μM, RNA/2a 0–4; SpecFit 1:1 fit.
Experiment [3] has as its system CUG RNA motif (RNA, repeat) GGUCGCUGCUGCACGAAAGUGCUGCUGCGACC
Description: fluorescence well-plate screening. The settings on record: buffer pH 7, 5 μM ligand, 1 equiv. RNA.

Setting [4] is: no pronounced interaction, small fluorescence change.

Turning to `CN(C)CCOc1ccc(/C=C2\Oc3cc(O)ccc3C2=O)cc1`, in experiment [1] (setting [4]), the binding result was “no”.

On to `CN(C)CCOc1ccc(/C=C2\Oc3cc(OCCN(C)C)ccc3C2=O)cc1`, for which, in experiment [2], the K result was “(1.4 ± 0.1) × 10^5 M^-1”. Further, the binding result in experiment [3] (absent or very weak interaction) is on record as “no”.

As for `COc1cc(/C=C2\Nc3ccccc3C2=O)ccc1OCCCN(C)C`, the binding result in experiment [1] is recorded as “no”.

For the compound `COc1ccc(/C=C2\Oc3cc(OCCN(C)C)ccc3C2=O)cc1`, in experiment [1] (setting [4]), the binding result was “no”.

On to `COc1ccc(/C=C2\Oc3ccccc3C2=O)cc1`, for which, in experiment [1], the binding result was “no”.

`N=C(N)c1ccc(-c2ccc(-c3ccc(C(=N)N)cc3)o2)cc1`: the binding entry in experiment [1] (57% quenching) is “yes”.

As for `O=C1/C(=C/c2c3ccccc3cc3ccccc23)Oc2ccccc21`, the binding entry is listed as “yes” in experiment [1] (21% light-up, aggregation prevented titration) and “no” in experiment [3] (excitation 450 nm, almost no interaction).

(Values after publication PMC11411626 (2024).)
